Assay results: patent publication US20220226299A1 (NIPPON CHEMIPHAR CO., LTD., priority 2019, published 2022)

Target: T1, human Cav3.2 channels (Homo sapiens, UniProt O95180)
T1 construct: human Cav3.2 channel ORF (Open Reading Frame) gene; expressed in transfected cells; host or cells: HEK293 cells (ATCC No. CRL-1573), pcDNA3.1(+) plasmid
Experiment: T-type calcium blocking action: intracellular calcium (Fluo-4 AM fluorescence) in HEK293 cells steadily expressing human Cav3.2 channels
Type: cell-based
Details: HEK293 cells expressing human Cav3.2; KCl-stimulated calcium influx, Fluo-4 fluorescence; Tables 1 to 3
How it was run: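 Fluo-4 AM-loaded stable HEK293 cells were preincubated 15 min at RT with compound (0.1% DMSO final) in choline-based buffer (pH 7.3). Gramicidin was added, then KCl-induced calcium influx was read at 485/510 nm for 10 s. Percent block came from peak rise over baseline, and IC50 from log-concentration plots.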

T1 sequence (O95180 whole entry): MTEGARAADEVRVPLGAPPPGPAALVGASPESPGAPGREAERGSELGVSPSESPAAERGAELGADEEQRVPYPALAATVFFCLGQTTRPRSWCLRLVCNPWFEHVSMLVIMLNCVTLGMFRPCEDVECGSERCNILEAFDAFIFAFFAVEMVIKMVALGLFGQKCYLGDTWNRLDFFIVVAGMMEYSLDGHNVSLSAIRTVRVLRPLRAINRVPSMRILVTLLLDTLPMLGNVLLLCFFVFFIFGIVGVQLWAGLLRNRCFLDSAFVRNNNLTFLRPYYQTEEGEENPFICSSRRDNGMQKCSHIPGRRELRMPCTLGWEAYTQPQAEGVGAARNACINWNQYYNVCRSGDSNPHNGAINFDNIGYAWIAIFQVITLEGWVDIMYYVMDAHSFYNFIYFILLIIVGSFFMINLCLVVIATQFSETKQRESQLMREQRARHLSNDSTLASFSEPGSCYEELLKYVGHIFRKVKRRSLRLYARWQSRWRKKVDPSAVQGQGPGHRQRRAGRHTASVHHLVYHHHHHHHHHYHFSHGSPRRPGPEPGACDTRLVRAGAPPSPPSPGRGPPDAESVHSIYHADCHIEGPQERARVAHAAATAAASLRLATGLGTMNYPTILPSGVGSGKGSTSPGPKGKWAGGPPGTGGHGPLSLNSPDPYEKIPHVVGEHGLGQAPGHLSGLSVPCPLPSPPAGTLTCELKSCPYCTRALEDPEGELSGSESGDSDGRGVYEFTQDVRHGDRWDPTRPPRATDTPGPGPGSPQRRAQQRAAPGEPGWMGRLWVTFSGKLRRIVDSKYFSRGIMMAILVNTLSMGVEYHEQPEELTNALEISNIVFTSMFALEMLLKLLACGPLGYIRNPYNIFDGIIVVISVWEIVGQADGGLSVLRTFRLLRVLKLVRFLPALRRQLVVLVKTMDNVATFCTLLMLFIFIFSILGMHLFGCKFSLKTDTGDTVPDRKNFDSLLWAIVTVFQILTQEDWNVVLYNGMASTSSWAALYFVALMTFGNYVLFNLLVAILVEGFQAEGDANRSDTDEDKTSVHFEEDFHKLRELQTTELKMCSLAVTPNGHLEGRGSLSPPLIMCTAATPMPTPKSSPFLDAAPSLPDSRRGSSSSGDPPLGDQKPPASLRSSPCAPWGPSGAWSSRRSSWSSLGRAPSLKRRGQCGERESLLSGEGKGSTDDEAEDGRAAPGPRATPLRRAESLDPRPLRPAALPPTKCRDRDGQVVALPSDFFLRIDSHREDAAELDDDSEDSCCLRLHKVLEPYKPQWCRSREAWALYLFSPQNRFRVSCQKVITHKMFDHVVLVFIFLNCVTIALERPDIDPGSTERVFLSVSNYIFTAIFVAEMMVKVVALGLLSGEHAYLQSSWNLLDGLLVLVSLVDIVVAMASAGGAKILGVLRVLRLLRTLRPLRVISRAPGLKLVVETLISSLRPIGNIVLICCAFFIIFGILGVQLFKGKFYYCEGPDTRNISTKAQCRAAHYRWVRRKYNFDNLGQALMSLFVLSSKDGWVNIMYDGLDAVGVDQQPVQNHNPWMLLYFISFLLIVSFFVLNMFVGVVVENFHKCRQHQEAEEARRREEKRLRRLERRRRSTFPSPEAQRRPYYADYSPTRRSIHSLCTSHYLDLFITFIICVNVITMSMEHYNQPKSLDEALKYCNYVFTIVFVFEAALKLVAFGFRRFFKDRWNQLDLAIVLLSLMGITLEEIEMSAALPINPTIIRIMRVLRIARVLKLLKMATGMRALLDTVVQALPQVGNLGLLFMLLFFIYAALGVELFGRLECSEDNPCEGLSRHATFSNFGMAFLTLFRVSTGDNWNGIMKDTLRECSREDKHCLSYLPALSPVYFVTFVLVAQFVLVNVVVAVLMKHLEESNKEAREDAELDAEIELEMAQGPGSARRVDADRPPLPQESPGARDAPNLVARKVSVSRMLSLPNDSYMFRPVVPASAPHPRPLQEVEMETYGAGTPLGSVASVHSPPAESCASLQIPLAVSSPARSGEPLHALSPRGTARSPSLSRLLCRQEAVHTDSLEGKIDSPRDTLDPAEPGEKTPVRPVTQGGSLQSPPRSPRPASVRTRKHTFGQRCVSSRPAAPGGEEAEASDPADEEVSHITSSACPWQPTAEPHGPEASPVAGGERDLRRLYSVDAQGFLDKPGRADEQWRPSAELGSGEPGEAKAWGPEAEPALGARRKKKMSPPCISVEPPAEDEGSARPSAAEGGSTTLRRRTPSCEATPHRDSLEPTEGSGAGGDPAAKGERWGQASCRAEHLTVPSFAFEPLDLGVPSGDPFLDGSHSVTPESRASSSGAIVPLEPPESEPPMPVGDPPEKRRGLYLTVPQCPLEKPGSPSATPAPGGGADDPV

Going from `O=C(Cc1ccc(C2CC2)cc1)N[C@H]1CN(c2cncc(C(F)(F)F)c2)C[C@@H]1O` [Example 5, 2-(4-cyclopropylphenyl)-N-((3S,4S)-4-hydroxy-1-(5-(trifluoromethyl)pyridin-3-yl)pyrrolidin-3-yl)acetamide] to `CCC1(NC(=O)Cc2ccc(C3CC3)cc2)CCN(c2cncc(C(F)(F)F)c2)C1` (centres unmarked) [Example 43, 2-(4-cyclopropylphenyl)-N-(3-ethyl-1-(5-(trifluoromethyl)pyridin-3-yl)pyrrolidin-3-yl)acetamide], the IC50 falls from 290 nM to 190 nM (1.5-fold).

First: O=C(Cc1ccc(C(F)(F)F)cc1)NC1(C(F)(F)F)CCN(c2cncc(C(F)(F)F)c2)C1 (centres unmarked) [Example 162, N-(3-(trifluoromethyl)-1-(5-(trifluoromethyl)pyridin-3-yl)pyrrolidin-3-yl)-2-(4-(trifluoromethyl)phenyl)acetamide]
Second: O=C(Cc1ccc(OC(F)(F)F)cc1)N[C@@H]1CCN(c2cncc(C(F)(F)F)c2)C1 [Example 115, (R)-2-(4-(trifluoromethoxy)phenyl)-N-(1-(5-(trifluoromethyl)pyridin-3-yl)pyrrolidin-3-yl)acetamide]
The IC50 of the first is 6.2-fold higher: 560 nM for the first, 91 nM for the second.

Compared with `CC(C)(O)c1cncc(N2CC[C@@H](NC(=O)Cc3ccc(C4CC4)cc3)C2)c1` [Example 19, (R)-2-(4-cyclopropylphenyl)-N-(1-(5-(2-hydroxypropan-2-yl)pyridin-3-yl)pyrrolidin-3-yl)acetamide], `COc1cccc(N2CC[C@@H](NC(=O)Cc3ccc(C4CC4)cc3)C2)c1` [Example 175, (R)-2-(4-cyclopropylphenyl)-N-(1-(3-methoxyphenyl)pyrrolidin-3-yl)acetamide] is 7.1-fold lower in IC50: 3500 nM for the first, 490 nM for the second.

Going from `Cn1ccc2cc(CC(=O)N[C@@H]3CCN(c4cncc(C(F)(F)F)c4)C3)ccc21` [Example 139, (R)-2-(1-methyl-1H-indol-5-yl)-N-(1-(5-(trifluoromethyl)pyridin-3-yl)pyrrolidin-3-yl)acetamide] to `O=C(Cc1ccc2[nH]nnc2c1)N[C@@H]1CCN(c2cncc(C(F)(F)F)c2)C1` [Example 163, (R)-2-(1H-benzo[d][1,2,3]triazol-5-yl)-N-(1-(5-(trifluoromethyl)pyridin-3-yl)pyrrolidin-3-yl)acetamide], the IC50 rises from 5.4 nM to 1400 nM (260-fold). The first is the more potent here.

Going from `O=C(N[C@@H]1CCN(c2cncc(C(F)(F)F)c2)C1)C1CC1c1ccc(F)c(F)c1` (single isomer, unassigned) [Example 107A] to `O=C(N[C@@H]1CCN(c2cncc(C(F)(F)F)c2)C1)C1CC1c1cc(Cl)cc(Cl)c1` (single isomer, unassigned) [Example 99A], the IC50 rises from 4.7 nM to 90 nM (19-fold). The first is the more potent here.

Going from `COCCN(C)c1ccc(CC(=O)N[C@@H]2CCN(c3cncc(C(F)(F)F)c3)C2)cc1` [Example 88, (R)-2-(4-((2-methoxyethyl)(methyl)amino)phenyl)-N-(1-(5-(trifluoromethyl)pyridin-3-yl)pyrrolidin-3-yl)acetamide] to `O=C(Cc1ccc(OCC(F)(F)F)cc1)N[C@@H]1CCN(c2cncc(C(F)(F)F)c2)C1` [Example 116, (R)-2-(4-(2,2,2-trifluoroethoxy)phenyl)-N-(1-(5-(trifluoromethyl)pyridin-3-yl)pyrrolidin-3-yl)acetamide], the IC50 rises from 19 nM to 40 nM (2.1-fold).

First: O=C1CCN(c2ccc(CC(=O)N[C@@H]3CCN(c4cncc(C(F)(F)F)c4)C3)cc2)CC1 [Example 102, (R)-2-(4-(4-oxopiperidin-1-yl)phenyl)-N-(1-(5-(trifluoromethyl)pyridin-3-yl)pyrrolidin-3-yl)acetamide]
Second: O=C(Cc1cc(F)cc(Cl)c1)N[C@@H]1CCN(c2cncc(C(F)(F)F)c2)C1 [Example 120, (R)-2-(3-chloro-5-fluorophenyl)-N-(1-(5-(trifluoromethyl)pyridin-3-yl)pyrrolidin-3-yl)acetamide]
The IC50 of the first is 5.5-fold lower: 150 nM for the first, 820 nM for the second. The first is the more potent here.

`CCOC(=O)C(C)(C)Oc1cccc(N2CC[C@@H](NC(=O)Cc3ccc(C4CC4)cc3)C2)c1` [Example 177, Ethyl (R)-2-(3-(3-(2-(4-cyclopropylphenyl)acetamido)pyrrolidin-1-yl)phenoxy)-2-methylpropanoate] and `N#Cc1ncc(N2CC[C@@H](NC(=O)Cc3ccc(C4CC4)cc3)C2)cc1C(F)(F)F` [Example 12, (R)—N-(1-(6-cyano-5-(trifluoromethyl)pyridin-3-yl)pyrrolidin-3-yl)-2-(4-cyclopropylphenyl)acetamide] are within 1.5-fold of each other in IC50: 300 nM for the first, 280 nM for the second.

Going from `O=C(N[C@@H]1CCN(c2cnc(C(F)(F)F)nc2)C1)[C@H]1C[C@@H]1c1nc2ccccc2[nH]1` [Example 70, (1S,2S)-2-(1H-benzo[d]imidazol-2-yl)-N—((R)-1-(2-(trifluoromethyl)pyrimidin-5-yl)pyrrolidin-3-yl)cyclopropane-1-carboxyamide] to `O=C(N[C@@H]1CCN(c2nc(C(F)(F)F)cs2)C1)[C@H]1C[C@@H]1c1nc2ccccc2[nH]1` [Example 64, (1S,2S)-2-(1H-benzo[d]imidazol-2-yl)-N—((R)-1-(4-(trifluoromethyl)thiazol-2-yl)pyrrolidin-3-yl)cyclopropane-1-carboxyamide], the IC50 falls from 210 nM to 37 nM (5.7-fold). The second is the more potent here.

First: CC(C)Cc1ccc(C(C)C(=O)N[C@@H]2CCN(c3cncc(C(F)(F)F)c3)C2)cc1 (stereo partly drawn) [Example 17, 2-(4-Isobutylphenyl)-N—((R)-1-(5-(trifluoromethyl)pyridin-3-yl)pyrrolidin-3-yl)propanamide]
Second: O=C(N[C@@H]1CCN(c2cncc(C(F)(F)F)c2)C1)[C@@H]1C[C@H]1c1nc2ccccc2o1 [Example 50, (1R,2R)-2-(benzo[d]oxazol-2-yl)-N—((R)-1-(5-(trifluoromethyl)pyridin-3-yl)pyrrolidin-3-yl)cyclopropane-1-carboxyamide]
The IC50 of the first is 1.8-fold lower: 380 nM for the first, 680 nM for the second.

Compared with `CC(C)(C)c1csc(N2CC[C@@H](NC(=O)[C@H]3C[C@@H]3c3nc4ccccc4[nH]3)C2)n1` [Example 68, (1S,2S)-2-(1H-benzo[d]imidazol-2-yl)-N—((R)-1-(4-(tert-butyl)thiazol-2-yl)pyrrolidin-3-yl)cyclopropane-1-carboxyamide], `O=C(N[C@@H]1CCN(c2ccc3cc(F)ccc3n2)C1)[C@H]1C[C@@H]1c1nc2ccccc2[nH]1` [Example 74, (1S,2S)-2-(1H-benzo[d]imidazol-2-yl)-N—((R)-1-(6-fluoroquinolin-2-yl)pyrrolidin-3-yl)cyclopropane-1-carboxyamide] is 1.7-fold higher in IC50: 75 nM for the first, 130 nM for the second.

Going from `O=C(N[C@@H]1CCN(c2ccc(C(F)(F)F)nc2)C1)[C@H]1C[C@@H]1c1nc2ccc(F)cc2o1` [Example 48, (1S,2S)-2-(6-fluorobenzo[d]oxazol-2-yl)-N—((R)-1-(6-(trifluoromethyl)pyridin-3-yl)pyrrolidin-3-yl)cyclopropane-1-carboxyamide] to `O=C(Cc1ccc(C(F)(F)F)cc1)N[C@@H]1CCN(c2ccc(F)c(C(F)(F)F)c2)C1` [Example 184, (R)—N-(1-(4-fluoro-3-(trifluoromethyl)phenyl)pyrrolidin-3-yl)-2-(4-(trifluoromethyl)phenyl)acetamide], the IC50 rises from 240 nM to 3000 nM (12-fold). The first is the more potent here.

First: CC(=O)OCC1(NC(=O)Cc2ccc(C3CC3)cc2)CCN(c2cncc(C(F)(F)F)c2)C1 (centres unmarked) [Example 104, (3-(2-(4-cyclopropylphenyl)acetamido)-1-(5-(trifluoromethyl)pyridin-3-yl)pyrrolidin-3-yl)methyl acetate]
Second: COCC1(NC(=O)Cc2ccc(C3CC3)cc2)CCN(c2cncc(C(F)(F)F)c2)C1 (centres unmarked) [Example 105, 2-(4-cyclopropylphenyl)-N-(3-(methoxymethyl)-1-(5-(trifluoromethyl)pyridin-3-yl)pyrrolidin-3-yl)acetamide]
The IC50 of the first is 1.9-fold higher: 460 nM for the first, 240 nM for the second. The second is the more potent here.
